{"source": "patent US20260098008A1", "about": "“COVALENT, CHEMOGENETIC ACTIVATORS FOR K2P POTASSIUM CHANNELS AND USES THEREOF” (THE REGENTS OF THE UNIVERSITY OF CALIFORNIA, priority 2022, published 2026)", "assay_in_all_cases": "TEVC in Xenopus oocytes", "format_in_all_cases": "cell-based", "key": {"K2P10.1 (TREK-2)^CG*": {"target": "T1, K2P10.1 (TREK-2)^CG* (Mus musculus, UniProt Q8BUW1, S153C)", "T1 construct": "Modified TREK-2 from Mus musculus; expressed in transfected cells; host or cells: Xenopus laevis oocytes injected with mRNA", "T1 sequence (Q8BUW1 with tags, fused parts or gaps S153C)": "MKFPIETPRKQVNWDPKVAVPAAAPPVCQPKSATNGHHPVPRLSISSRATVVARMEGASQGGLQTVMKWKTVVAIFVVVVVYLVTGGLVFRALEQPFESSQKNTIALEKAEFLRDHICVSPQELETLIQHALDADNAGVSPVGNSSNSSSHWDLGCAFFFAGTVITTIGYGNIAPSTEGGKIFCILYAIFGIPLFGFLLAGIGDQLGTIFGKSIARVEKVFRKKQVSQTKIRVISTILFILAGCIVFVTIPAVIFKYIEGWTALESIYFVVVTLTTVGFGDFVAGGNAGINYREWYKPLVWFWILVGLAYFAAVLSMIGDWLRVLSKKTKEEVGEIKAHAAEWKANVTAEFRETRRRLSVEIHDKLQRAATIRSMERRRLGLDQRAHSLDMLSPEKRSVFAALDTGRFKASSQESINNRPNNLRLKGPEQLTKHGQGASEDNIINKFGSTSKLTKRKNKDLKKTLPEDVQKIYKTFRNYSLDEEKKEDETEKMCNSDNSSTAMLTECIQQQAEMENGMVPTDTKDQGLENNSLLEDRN", "conditions": "20 μM, Xenopus oocytes"}, "K2P18.1 (TRESK)^CG*": {"target": "T2, K2P18.1 (TRESK)^CG* (Mus musculus, UniProt Q6VV64, S116C)", "T2 construct": "expressed in transfected cells; host or cells: Xenopus laevis oocytes injected with mRNA", "T2 sequence (Q6VV64 1-394 S116C)": "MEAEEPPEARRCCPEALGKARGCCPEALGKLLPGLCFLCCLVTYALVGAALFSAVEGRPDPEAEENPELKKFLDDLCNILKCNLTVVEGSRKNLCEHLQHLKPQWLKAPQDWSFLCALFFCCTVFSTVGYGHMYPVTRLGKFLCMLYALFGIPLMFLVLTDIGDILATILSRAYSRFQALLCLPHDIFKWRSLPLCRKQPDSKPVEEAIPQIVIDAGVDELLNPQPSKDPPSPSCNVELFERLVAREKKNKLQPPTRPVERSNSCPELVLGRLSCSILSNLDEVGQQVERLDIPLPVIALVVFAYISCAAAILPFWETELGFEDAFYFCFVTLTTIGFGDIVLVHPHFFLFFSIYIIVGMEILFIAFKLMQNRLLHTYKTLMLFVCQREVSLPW", "conditions": "20 μM"}, "K2P2.1 (TREK-1) S131A": {"target": "T3, K2P2.1 (TREK-1) S131A (Mus musculus, UniProt P97438, S146A)", "T3 construct": "expressed in transfected cells; host or cells: Xenopus laevis oocytes injected with mRNA", "T3 sequence (P97438 1-411 isoform P97438-2 S131A)": "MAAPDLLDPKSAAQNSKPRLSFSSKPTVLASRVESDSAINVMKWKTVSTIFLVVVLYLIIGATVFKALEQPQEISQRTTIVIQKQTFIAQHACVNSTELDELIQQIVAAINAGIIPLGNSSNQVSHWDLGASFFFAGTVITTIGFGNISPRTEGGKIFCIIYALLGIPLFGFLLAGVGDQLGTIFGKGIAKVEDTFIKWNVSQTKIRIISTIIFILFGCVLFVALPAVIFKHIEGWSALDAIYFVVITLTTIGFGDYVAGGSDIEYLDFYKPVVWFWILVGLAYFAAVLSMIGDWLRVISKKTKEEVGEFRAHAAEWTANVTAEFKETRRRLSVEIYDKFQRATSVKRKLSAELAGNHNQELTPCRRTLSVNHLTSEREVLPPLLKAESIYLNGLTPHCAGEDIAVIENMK", "conditions": "20 μM, 0 mV"}}, "data": [{"smiles": "O=C(NCc1ccc(Cl)cc1Cl)c1ccc(N2C(=O)C=CC2=O)cc1", "note": "[CAT335]", "values": [{"measurement": "Fold-activation (I activator/I control)", "setting": "K2P10.1 (TREK-2)^CG*; 0 mV", "value": "18±2", "unit": "fold"}, {"measurement": "Reversibility of activation", "setting": "K2P10.1 (TREK-2)^CG*", "value": "irreversibly activated"}, {"measurement": "Activation of channel", "setting": "K2P18.1 (TRESK)^CG*", "value": "not activated"}]}, {"smiles": "CS(=O)(=O)Nc1ccc(C(=O)NCc2ccc(Cl)cc2Cl)cc1", "note": "[ML335, reference compound]", "values": [{"measurement": "Fold-activation (I activator/I control)", "setting": "K2P2.1 (TREK-1) S131A", "value": 6.8, "unit": "fold"}]}]}
